How the values were obtained:
C57BL/6N mice = test: Hair shaft diameter of regrown body hair after hair pull-out (Example 2); type: in vivo; details: 1 wt % in 50% ethanol, once/day 100 μl, day 21 after the application; FIG. 15, P<0.01
Text: In C57BL6/N mice, it is known that when body hair of the back is pulled out, hair cycles in the pulled-out region are forced to shift to the […], and as a result, the hair cycles in the pulled-out region are synchronized. Therefore, only hair in the anagen phase becomes observable by decreasing variations in hair cycles. Approximately 7 days after hair is pulled out, as a sign of the anagen phase, skin color changing into gray is observed as melanocytes in hair follicles start synthesizing melanin, in addition to growth of pigmented hair. Further, approximately 10 days after hair is pulled out, new hair growth is observed in the pulled-out region. […] Accordingly, hair growth activity can be evaluated from a viewpoint of an increase in hair shaft diameter by measuring the hair shaft diameter of body hair grown in the pulled-out region approximately 21 days after hair is pulled out. […]
The application was performed for two groups (test solution-applied group and negative control group (50% ethanol-applied group)), where each group consisted of six mice. […] About 20 hair shafts were collected from each mouse, and the hair shaft diameter was measured for 10 hair shafts randomly selected from 120 hair shafts in total collected from 6 mice of each group. […]

C3H/He mice = test: New hair growth promoting activity in telogen-phase mice after hair removal (Example 3); type: in vivo; details: 5 wt % in 50% ethanol, once/day 100 μl
Text: The hair follicle that produces a hair shaft is the only organ known to repeat growth and regression over the entire life. Such regular growth and regression are divided into the anagen phase, the catagen phase, and the telogen phase of a hair cycle. The body hair of the back of C3H/He mice is bound to be in the telogen phase 45 to 95 days after birth, and thus an extremely long telogen phase-bound period is observed compared with common mice, such as C57BL/6N mice, whose hair cycle of the body hair of the back lasts about 21 days in total for the anagen phase, the catagen phase, and the telogen phase. […] Therefore, by using C3H/He mice at 45 to 90 days after birth, new hair growth promoting activity can be evaluated. […]
The application was performed for two groups (test solution-applied group and negative control group (50% ethanol-applied group)), where each group consisted of five mice. On the basis of new hair growth score criteria (Table 15) according to appearance changes in a portion of the applied region that leaves the telogen phase and enters a regeneration phase, the degree of new hair growth in the applied region was quantified (range of 1 to 10 in which new hair growth scores concerning two items are summed) over time on day 0, 4, 5, 6, 7, 10, 11, 12, 13, 14, 17, 18, 19, 20, and 21 after hair removal. […]

hair papilla cells = test: Hair papilla cell proliferation test by two-dimensional culture (Example 5); type: cell-based, C57BL/6N mouse; details: final concentration 0.1 wt %, cultured for 3 days; FIG. 18
Text: Hair papilla cells transmit new hair growth signals to hair matrix cells via signaling substances to activate hair matrix cells, thereby controlling processes of new hair growth and hair elongation. Accordingly, the hair shaft growth promoting activity and the like of test substances can be evaluated from a proliferation rate of hair papilla cells. In this Example, the skin of the whisker region was taken from a C57BL/6N mouse and hair papillae were harvested from isolated whisker follicles under a stereo microscope. Six hair papillae were fixed to the bottom surface of a 60 mm-plastic petri dish (from Sumitomo Bakelite Co., Ltd.), and the primary culture was performed at 37° C. in the presence of 5% CO2 by using a hair papilla cell culture medium in which 2% FCS (fetal calf serum), 0.6% ITT (insulin-transferrin-triiodothyronine mixture), 1% BPE (bovine pituitary extract), and 0.6% Cyp (cyproterone solution) were added to a PCGM base medium. Afterwards, the medium was replaced every 2 to 3 days and subculturing was repeated about every two weeks. In this experiment, hair papilla cells at passage 3 or less were used. […] The number of cells after culturing for 3 days was counted by using a hemocytometer, and proliferation rates in test solution A and the test solution B were calculated relative to 100% for a proliferation rate in the negative control as 100%.

With OC1C(O)C(O)C(O)C(O)C1O [D-chiro-inositol] the “Hair shaft diameter vs negative control group” value (C57BL/6N mice) was “significantly larger”, the “Average timing of new hair growth (new hair growth score reached 1 or more), number of days after hair removal” value (C3H/He mice; FIG. 17, negative control day 9) was 4 days and the “New hair growth score vs negative control group” value (C3H/He mice; day 21 after hair removal, FIG. 16, P<0.05) was “significantly higher”. The “Hair papilla cell proliferation rate vs negative control” value (hair papilla cells) was “increased significantly”.
